In series [1] the target is NikA (Klebsiella pneumoniae, UniProt A6TFA3). The class given is binding. To be noted: for n (stoichiometry, ITC) / ∆G / ∆H / −T∆S: 37 °C; for Kd: read-out: KD for NikA (ITC), 25 mM Tris-HCl, 150 mM NaCl, 0.1% Triton X-100, pH 7.5, 37 °C.
For the next series, the system named is HEK293 cells. As to the kind of experiment: HEK293 cytotoxicity assay (Cell Titer Glo 2.0). For orientation: In ATP-based viability assays light output follows the ATP content of the culture.
The test system of the next series is S. aureus. The format is cell-based, Staphylococcus aureus. To be noted: 200 μM, 24 h.
The test system of series [2] is NikA. The class given is binding, Klebsiella pneumoniae. To be noted: 100 μM.
Series [3] deals with K. pneumoniae. The format is cell-based, Klebsiella pneumoniae. To be noted: 200 μM, 24 h exposure.
Series [4] concerns S. aureus urease activity (whole cell). The format is cell-based, Staphylococcus aureus. To be noted: S. aureus, artificial urine, 24 h.
The test system of series [5] is K. pneumoniae. The class given is cell-based, Klebsiella pneumoniae. To be noted: for Growth curve (culture density): 50 μM; for growth with urea as sole nitrogen source: Chelex-treated nitrogen-limited medium.
For series [6] the following is noted: pH 7.5, 2:1 complex, cited from earlier work.
In series [7] the test system is K. pneumoniae urease activity (Ni2+ uptake). As to the kind of experiment: Competition of Zn-AMA with Ni-(L-His)2 (urease-dependent pH). To be noted: Zn-AMA 0 μM. The class given is cell-based, Klebsiella pneumoniae.
The test system of series [8] is K. pneumoniae urease activity (whole cell). As to the kind of experiment: microbe, parasite or virus in culture. The format is cell-based, Klebsiella pneumoniae ATCC 33495. To be noted: for K. pneumoniae urease-dependent pH change (pH): 37 °C.
The target of the next series is T1, urease (Klebsiella pneumoniae subsp. pneumoniae, UniProt A6TE40+A6TE41+A6TE42).
T1 construct: endogenous in cells; host or cells: Klebsiella pneumoniae (ATCC 33495), sonicated and cleared lysate
Kind of series: Urease activity in cell-free extracts (NH3 release, indophenol-hypochlorite). The format is biochemical. As to the method: The cells were subsequently lysed by sonication, and cell debris was removed with centrifugation (20,000 × g, 10 min). […] Liberated NH3 was quantified using the indophenol-hypocholorite reaction as previously described. The total amount of protein was quantified by Bradford assay using bovine serum albumin as standard. Each assay was performed in duplicate wells.
FIG S7 Evaluation of Zn-AMA as a direct inhibitor of urease. A) Checkerboard analysis of Zn-AMA and AHA on urease activity of K. […]
Dose- […]
response curves of fluorofamide, Zn-AMA, and AMA inhibiting the urease-catalyzed release of NH3 quantified with indophenol hypochlorite. The rates of NH3 production were measured over 20 min and were normalized to total protein concentration. Experiments were performed in duplicate. Individual replicates are shown as colored circles.

Values joined by “and” are separate entries in the source; they are usually repeats but may differ in a detail not shown here. Equal values may be shown once. Read-outs that look alike come from different tables or passages of the source.

NikA (Klebsiella pneumoniae, UniProt A6TFA3), sequence (A6TFA3 entry or part of it): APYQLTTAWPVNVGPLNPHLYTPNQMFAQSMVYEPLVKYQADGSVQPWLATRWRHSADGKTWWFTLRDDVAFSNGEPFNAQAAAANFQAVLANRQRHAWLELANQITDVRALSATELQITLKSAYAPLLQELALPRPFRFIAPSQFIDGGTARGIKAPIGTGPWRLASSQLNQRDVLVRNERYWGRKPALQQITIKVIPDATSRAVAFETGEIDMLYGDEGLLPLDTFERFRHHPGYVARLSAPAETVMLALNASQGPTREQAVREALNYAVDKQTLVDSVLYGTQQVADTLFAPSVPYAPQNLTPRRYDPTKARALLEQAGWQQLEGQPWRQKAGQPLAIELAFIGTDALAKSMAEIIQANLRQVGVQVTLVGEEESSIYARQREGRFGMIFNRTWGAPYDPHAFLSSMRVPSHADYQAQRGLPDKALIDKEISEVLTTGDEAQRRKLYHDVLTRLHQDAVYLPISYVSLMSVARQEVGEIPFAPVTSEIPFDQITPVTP
T1 sequence (A6TE41 whole entry): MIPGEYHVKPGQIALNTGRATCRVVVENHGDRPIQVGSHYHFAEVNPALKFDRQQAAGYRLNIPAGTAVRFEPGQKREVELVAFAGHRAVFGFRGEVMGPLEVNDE
T1 sequence (A6TE40 whole entry): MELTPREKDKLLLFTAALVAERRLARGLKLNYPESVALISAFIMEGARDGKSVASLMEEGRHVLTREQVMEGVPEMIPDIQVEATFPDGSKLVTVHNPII
T1 sequence (A6TE42 whole entry): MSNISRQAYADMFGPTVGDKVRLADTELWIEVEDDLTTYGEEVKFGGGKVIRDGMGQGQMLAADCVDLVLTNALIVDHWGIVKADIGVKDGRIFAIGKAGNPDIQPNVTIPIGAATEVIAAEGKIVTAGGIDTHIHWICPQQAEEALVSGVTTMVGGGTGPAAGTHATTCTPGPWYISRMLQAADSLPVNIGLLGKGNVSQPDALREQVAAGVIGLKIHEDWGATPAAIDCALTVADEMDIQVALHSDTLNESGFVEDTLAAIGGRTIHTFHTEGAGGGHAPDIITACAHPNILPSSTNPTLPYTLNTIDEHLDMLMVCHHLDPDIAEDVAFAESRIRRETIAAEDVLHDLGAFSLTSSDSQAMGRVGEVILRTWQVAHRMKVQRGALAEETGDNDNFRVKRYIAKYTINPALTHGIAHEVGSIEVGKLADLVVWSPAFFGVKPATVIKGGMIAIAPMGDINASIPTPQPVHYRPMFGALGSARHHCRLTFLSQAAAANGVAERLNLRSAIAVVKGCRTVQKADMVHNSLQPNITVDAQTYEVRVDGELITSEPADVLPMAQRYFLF

Regarding `N[C@@H](CN[C@@H](CN[C@@H](CC(=O)O)C(=O)O)C(=O)O)C(=O)O.[Co+2]` [Co-AMA], the “n (stoichiometry, ITC)” value at NikA [1] (pH 7.5) amounted to 1.06. In addition, the “∆G” value at NikA [1] (pH 7.5) is -6.9 kcal/mol. For the same compound, at NikA [1] (pH 7.5), the “∆H” value is -10.5 kcal/mol. The “−T∆S” value at NikA [1] (pH 7.5) turned out to be 3.6 kcal/mol. Further, the Kd on NikA [1] was 13 ± 0.4 µM. Further, the “HEK 293T cytotoxicity assay raw signal” value in the series on HEK293 cells (Co-AMA 0.5 μg/mL) was 622984 and 609603 and 578025; with HEK293 cells (Co-AMA 1 μg/mL) it was 648007 and 588509 and 584554; in the series with HEK293 cells (Co-AMA 2 μg/mL), 653814 and 579149 and 584837; in the series on HEK293 cells (Co-AMA 4 μg/mL), 624260 and 594763 and 611086; in the series on HEK293 cells (Co-AMA 8 μg/mL) it was 684397 and 665902 and 598886; in the series on HEK293 cells (Co-AMA 16 μg/mL) it was 641409 and 612229 and 581248. Besides, the “HEK 293T cytotoxicity assay raw signal” value was 567905 and 544667 and 548517 in the series with HEK293 cells (Co-AMA 32 μg/mL); 578062 and 599992 and 521662 in the series with HEK293 cells (Co-AMA 64 μg/mL); 421336 and 474275 and 462640 with HEK293 cells (Co-AMA 128 μg/mL); 411884 and 395016 and 434679 with HEK293 cells (Co-AMA 256 μg/mL); 266726 and 265058 and 263860 in the series with HEK293 cells (Co-AMA 512 μg/mL). Further, in the series with HEK293 cells (highest test concentration 512 μg/mL, 48 h), the “reduction in HEK293 cell viability” value stood at 50%. Besides, the “bacterial viability (spot dilutions)” value in the series with S. aureus is listed as “not lethal to bacteria”; in the series on K. pneumoniae [3], “do not affect bacterial viability”. For the same compound, in the series with NikA [2], the “effect on stability of recombinant NikA” value was “increase NikA’s stability”. In addition, the “effect on urease activity” value in [4] is recorded as “inhibited urease activity similarly”.

With `[Cl-].[Cl-].[Co+2]` [Co^2+, CoCl2], the “effect on stability of recombinant NikA” value with NikA [2] is “did not affect it”.

As to `CC(=NO)C(C)=NO` [DMG, dimethylglyoxime, reference compound], the “Growth curve (culture density)” value was 0.125 and 0.12 with K. pneumoniae [5] (15.15 h); 0.131 and 0.126 in the series with K. pneumoniae [5] (16.15 h); 0.14 and 0.136 with K. pneumoniae [5] (17.15 h). The “growth with urea as sole nitrogen source” value in the series on K. pneumoniae [5] is recorded as “did not”.

Regarding `N[C@@H](Cc1c[nH]cn1)C(=O)O` [L-His, L-histidine, reference compound], the values for the Kd in series [6] (read-out: KD1 for Ni^2+) and in [6] (read-out: KD2 for Ni^2+) were 0.64 µM and 8.8 µM, respectively. Further, the “pH of culture (Zn-AMA v.s. L-His)” value in [7] (L-His 3.12 μM) is 8.06 and 8.1; in [7] (L-His 6.25 μM), 8.07 and 8.1; in series [7] (L-His 12.5 μM), 7.85 and 7.9. In the series on K. pneumoniae [5], the “growth with urea as sole nitrogen source” value is “not viable”.

As to `[Cl][Ni][Cl]` [Ni^2+, NiCl2], the “effect on stability of recombinant NikA” value with NikA [2] is on record as “did not affect it”.

Turning to `N[C@@H](CN[C@@H](CC(=O)O)C(=O)O)C(=O)O.[Zn+2]` [Zn-Toxin A], the “n (stoichiometry, ITC)” value on NikA [1] (pH 7.5) was determined as 1.15. The “∆G” value on NikA [1] (pH 7.5) is -7.4 kcal/mol; at NikA [1] (pH 7.5, listed as Zn-toxin A) it was -7.41 kcal/mol. For the same compound, the “∆H” value at NikA [1] (pH 7.5) is -9.6 kcal/mol; at NikA [1] (pH 7.5, listed as Zn-toxin A), -9.61 kcal/mol. The “−T∆S” value at NikA [1] (pH 7.5) stood at 2.2 kcal/mol. Further, on NikA [1] (Fig S13, 37 °C, pH 7.5), the “-∆TS” value was 2.20. In addition, the Kd on NikA [1] is 6 ± 0.8 µM. The “Urease-dependent pH change (pH)” value in series [8] (Zn-Toxin A 0.19 μM) is 7.83 and 7.80; in series [8] (Zn-Toxin A 0.39 μM) it was 7.83 and 7.88; in series [8] (Zn-Toxin A 0.78 μM) it was 7.88 and 7.78; in [8] (Zn-Toxin A 1.56 μM), 7.66 and 7.81; in [8] (Zn-Toxin A 3.12 μM), 7.79 and 7.72; in series [8] (Zn-Toxin A 6.25 μM), 7.83 and 7.77. Moreover, the “Urease-dependent pH change (pH)” value in [8] (Zn-Toxin A 12.5 μM) was 7.84 and 7.79; in series [8] (Zn-Toxin A 25 μM), 7.79 and 7.82; in [8] (Zn-Toxin A 50 μM) it was 7.77 and 7.81; in series [8] (Zn-Toxin A 100 μM) it was 7.79 and 7.77; in series [8] (Zn-Toxin A 200 μM), 7.66 and 7.69.

For `[Cl-].[Cl-].[Zn+2]` [ZnCl2, reference compound], the “K. pneumoniae urease-dependent pH change (pH)” value in [8] (0.39 μM, artificial urine, 24 h) is 8.18 and 8.29; in series [8] (0.78 μM, artificial urine, 24 h), 8.27 and 8.39; in series [8] (1.56 μM, artificial urine, 24 h), 8.17 and 8.34; in [8] (3.12 μM, artificial urine, 24 h), 8.20 and 8.42; in series [8] (6.25 μM, artificial urine, 24 h), 8.19 and 8.30; in series [8] (12.5 μM, artificial urine, 24 h) it was 8.23 and 8.21. Besides, the “K. pneumoniae urease-dependent pH change (pH)” value in [8] (25 μM, artificial urine, 24 h) was 8.25 and 8.11; in series [8] (50 μM, artificial urine, 24 h) it was 8.14 and 8.06; in series [8] (100 μM, artificial urine, 24 h) it was 8.06 and 8.01; in [8] (200 μM, artificial urine, 24 h) it was 7.51 and 7.49. The “effect on urease activity” value in series [8] (K. pneumoniae, artificial urine, 24 h) is reported as “did not affect urease activity”; in series [4], “did not affect urease activity”. The “effect on stability of recombinant NikA” value in the series on NikA [2] was “stabilized NikA”.

Take `NP(N)(=O)NC(=O)c1ccc(F)cc1` [fluorfamide, reference compound]: the “Specific activity (cell-free indophenol urease assay)” value was 36.97 nmol/min/mg and 30.98 nmol/min/mg at urease (Fluorofamide 0.000122 mM); 36.32 nmol/min/mg and 35.04 nmol/min/mg on urease (Fluorofamide 0.000244 mM); 34.40 nmol/min/mg and 35.26 nmol/min/mg on urease (Fluorofamide 0.000488 mM); 30.98 nmol/min/mg and 33.12 nmol/min/mg at urease (Fluorofamide 0.000977 mM); 25.00 nmol/min/mg and 23.72 nmol/min/mg at urease (Fluorofamide 0.001953 mM); 16.88 nmol/min/mg at urease (Fluorofamide 0.003906 mM). In addition, the “Specific activity (cell-free indophenol urease assay)” value on urease (Fluorofamide 0.007813 mM) was 7.48 nmol/min/mg and 7.26 nmol/min/mg; at urease (Fluorofamide 0.015625 mM), 2.56 nmol/min/mg and 2.35 nmol/min/mg; on urease (Fluorofamide 0.03125 mM), 0.85 nmol/min/mg and 0.64 nmol/min/mg; on urease (Fluorofamide 0.0625 mM) it was 0.21 nmol/min/mg.

Source of the values: paper PMC11091072, “Targeting bacterial nickel transport with aspergillomarasmine A suppresses virulence-associated Ni-dependent enzymes” (Nature Communications, 2024).
